In ChEMBL document CHEMBL3880421, “Indazole compounds and pharmaceutical compositions for inhibiting protein kinases, and methods for their use” (2003):

Assay: Antiproliferative activity against VEGF-stimulated HUVEC cells assessed as reduction in cell viability at 10 nM preincubated for 1 hr followed by addition of VEGF measured after 72 hrs by MTT assay
Format: functional
Settings: Homo sapiens

Compared with `O=C(Nc1cccc(Oc2ccc3c(/C=C/c4ccccc4)n[nH]c3c2)c1)C(=O)C1=CCCCC1`, `O=C(Nc1cccc(Nc2ccc3c(/C=C/c4ccccc4)n[nH]c3c2)c1)C(=O)C1=CCCCC1` is lower in inhibition at 0.01 µM: 57% for the first, 23% for the second.

Compared with `CC(C)[C@@H](O)C(=O)Nc1cccc(C(=O)c2ccc3c(/C=C/c4ccccc4)n[nH]c3c2)c1`, `CC(C)CC(O)C(=O)Nc1cccc(C(=O)c2ccc3c(/C=C/c4ccccc4)n[nH]c3c2)c1` (stereo not drawn) is higher in inhibition at 0.01 µM: 33% for the first, 47% for the second.

Going from `O=C(CC1=CCCCC1)Nc1cccc(Oc2ccc3c(/C=C/c4ccccc4)n[nH]c3c2)c1` to `O=C(CC1=CCCCC1)Nc1cccc(Nc2ccc3c(/C=C/c4ccccc4)n[nH]c3c2)c1`, the inhibition at 0.01 µM falls from 92% to 81%.

Compared with `Cc1ccc(CCC(=O)Nc2cccc(Oc3ccc4c(/C=C/c5ccccc5)n[nH]c4c3)c2)cc1`, `Cc1ccc(CCC(=O)Nc2cccc(Nc3ccc4c(/C=C/c5ccccc5)n[nH]c4c3)c2)cc1` is lower in inhibition at 0.01 µM: 70% for the first, 29% for the second.

Going from `O=C(c1cccc(NC(=O)c2cc(=O)[nH]c(=O)[nH]2)c1)c1ccc2c(/C=C/c3ccccc3)n[nH]c2c1` to `COc1ccc(C#N)c(C(=O)Nc2cccc(C(=O)c3ccc4c(/C=C/c5ccccc5)n[nH]c4c3)c2)c1`, the inhibition at 0.01 µM falls from 14% to -20%.

First: COc1ccccc1/C=C/C(=O)Nc1cccc(Oc2ccc3c(/C=C/c4ccccc4)n[nH]c3c2)c1
Second: COc1ccccc1/C=C/C(=O)Nc1cccc(Nc2ccc3c(/C=C/c4ccccc4)n[nH]c3c2)c1
The inhibition at 0.01 µM of the first is higher: 17% for the first, 10% for the second.

Compared with `CC(C)(C)[C@@H](O)C(=O)Nc1cccc(Nc2ccc3c(/C=C/c4ccccc4)n[nH]c3c2)c1`, `CC(C)C(=O)Nc1cccc(Nc2ccc3c(/C=C/c4ccccc4)n[nH]c3c2)c1` is higher in inhibition at 0.01 µM: 10% for the first, 24% for the second.

First: O=C1NCC(C(=O)Nc2cccc(Nc3ccc4c(/C=C/c5ccccc5)n[nH]c4c3)c2)N1 (stereo not drawn)
Second: O=C1C[C@H](C(=O)Nc2cccc(Nc3ccc4c(/C=C/c5ccccc5)n[nH]c4c3)c2)NC(=O)N1
The inhibition at 0.01 µM of the first is lower: 7% for the first, 17% for the second.

Compared with `C/C(=C\C(=O)Nc1cccc(C(=O)c2ccc3c(/C=C/c4ccccc4)n[nH]c3c2)c1)c1ccccc1C`, `C/C(=C\C(=O)Nc1cccc(Nc2ccc3c(/C=C/c4ccccc4)n[nH]c3c2)c1)c1ccccc1C` is lower in inhibition at 0.01 µM: 99% for the first, 75% for the second.

Going from `CC(C)=CC1C(C(=O)Nc2cccc(Nc3ccc4c(/C=C/c5ccccc5)n[nH]c4c3)c2)C1(C)C` (stereo not drawn) to `CC(C)=NOC(C)C(=O)Nc1cccc(Nc2ccc3c(/C=C/c4ccccc4)n[nH]c3c2)c1` (stereo not drawn), the inhibition at 0.01 µM falls from 16% to -1%.

Going from `O=C(c1cccc(NC(=O)C2CCCO2)c1)c1ccc2c(/C=C/c3ccccc3)n[nH]c2c1` (stereo not drawn) to `O=C(c1cccc(NC(=O)[C@H]2CCC[C@H]2O)c1)c1ccc2c(/C=C/c3ccccc3)n[nH]c2c1`, the inhibition at 0.01 µM rises from 18% to 39%.

Going from `COc1cccc(/C=C/C(=O)Nc2cccc(Nc3ccc4c(/C=C/c5ccccc5)n[nH]c4c3)c2)c1` to `COc1ccc(C#N)c(C(=O)Nc2cccc(Nc3ccc4c(/C=C/c5ccccc5)n[nH]c4c3)c2)c1`, the inhibition at 0.01 µM falls from 30% to -18%.

Going from `O=C(c1cccc(NC(=O)C2CC3CC(O)C2C3)c1)c1ccc2c(/C=C/c3ccccc3)n[nH]c2c1` (stereo not drawn) to `O=C(Nc1cccc(Oc2ccc3c(/C=C/c4ccccc4)n[nH]c3c2)c1)C1CC2CC(O)C1C2` (stereo not drawn), the inhibition at 0.01 µM falls from 64% to 38%.

Compared with `CC(=O)N1CCCC1C(=O)Nc1cccc(Oc2ccc3c(/C=C/c4ccccc4)n[nH]c3c2)c1` (stereo not drawn), `CC(=O)N1CCC[C@@H]1C(=O)Nc1cccc(Oc2ccc3c(/C=C/c4ccccc4)n[nH]c3c2)c1` is higher in inhibition at 0.01 µM: 19% for the first, 20% for the second.

Compared with `O=C(CCC(=O)N1CCCC1)Nc1cccc(Nc2ccc3c(/C=C/c4ccccc4)n[nH]c3c2)c1`, `O=C(CCN1CCCCC1)Nc1cccc(Nc2ccc3c(/C=C/c4ccccc4)n[nH]c3c2)c1` is higher in inhibition at 0.01 µM: -8% for the first, 30% for the second.

Going from `CC1(C)OC(=O)[C@H](CC(=O)Nc2cccc(Oc3ccc4c(/C=C/c5ccccc5)n[nH]c4c3)c2)O1` to `CC(C)C(=O)Nc1cccc(Oc2ccc3c(/C=C/c4ccccc4)n[nH]c3c2)c1`, the inhibition at 0.01 µM rises from 22% to 57%.

First: CC(=O)NC(C)(C)CC(=O)Nc1cccc(C(=O)c2ccc3c(/C=C/c4ccccc4)n[nH]c3c2)c1
Second: CC(C)CC(=O)C(=O)Nc1cccc(C(=O)c2ccc3c(/C=C/c4ccccc4)n[nH]c3c2)c1
The inhibition at 0.01 µM of the first is lower: 35% for the first, 81% for the second.

First: O=C(Nc1cccc(Nc2ccc3c(/C=C/c4ccccc4)n[nH]c3c2)c1)C1CCOC1 (stereo not drawn)
Second: CC(=O)N1CCC[C@@H]1C(=O)Nc1cccc(Nc2ccc3c(/C=C/c4ccccc4)n[nH]c3c2)c1
The inhibition at 0.01 µM of the first is higher: -3% for the first, -5% for the second.

First: O=C(/C=C/C(=O)Nc1cccc(C(=O)c2ccc3c(/C=C/c4ccccc4)n[nH]c3c2)c1)NCC1CC1
Second: O=C(/C=C/C(=O)Nc1cccc(Nc2ccc3c(/C=C/c4ccccc4)n[nH]c3c2)c1)NCC1CC1
The inhibition at 0.01 µM of the first is lower: 3% for the first, 13% for the second.

Going from `O=C(CC1CC2CCC1C2)Nc1cccc(Nc2ccc3c(/C=C/c4ccccc4)n[nH]c3c2)c1` (stereo not drawn) to `O=C(CC1CC2CCC1C2)Nc1cccc(C(=O)c2ccc3c(/C=C/c4ccccc4)n[nH]c3c2)c1` (stereo not drawn), the inhibition at 0.01 µM falls from 87% to 75%.

Compared with `CCCN(CCC)CC(=O)Nc1cccc(Oc2ccc3c(/C=C/c4ccccc4)n[nH]c3c2)c1`, `CCCN(CCC)CC(=O)Nc1cccc(Nc2ccc3c(/C=C/c4ccccc4)n[nH]c3c2)c1` is lower in inhibition at 0.01 µM: 25% for the first, 17% for the second.

First: O=C(Cc1cc(F)ccc1F)Nc1cccc(Oc2ccc3c(/C=C/c4ccccc4)n[nH]c3c2)c1
Second: O=C(Nc1cccc(Oc2ccc3c(/C=C/c4ccccc4)n[nH]c3c2)c1)c1ccc(=O)oc1
The inhibition at 0.01 µM of the first is higher: 91% for the first, 5% for the second.

Going from `O=C(Nc1cccc(Oc2ccc3c(/C=C/c4ccccc4)n[nH]c3c2)c1)C1=C[C@@H](O)[C@@H](O)[C@H](O)C1` to `O=C(Nc1cccc(Oc2ccc3c(/C=C/c4ccccc4)n[nH]c3c2)c1)C1C[C@H]2C=C[C@H]1C2` (stereo partly drawn), the inhibition at 0.01 µM rises from 25% to 82%.

Compared with `O=C(Nc1cccc(Nc2ccc3c(/C=C/c4ccccc4)n[nH]c3c2)c1)c1cccc2[nH]ccc12`, `O=C(Nc1cccc(Oc2ccc3c(/C=C/c4ccccc4)n[nH]c3c2)c1)c1cccc2cc[nH]c12` is lower in inhibition at 0.01 µM: 94% for the first, 68% for the second.

Compared with `CC(=O)N1CCC(C(=O)Nc2cccc(Oc3ccc4c(/C=C/c5ccccc5)n[nH]c4c3)c2)CC1`, `O=C(Nc1cccc(Oc2ccc3c(/C=C/c4ccccc4)n[nH]c3c2)c1)C1CCCO1` (stereo not drawn) is higher in inhibition at 0.01 µM: 42% for the first, 51% for the second.

Compared with `O=C(/C=C/C1C[C@H]2C=C[C@H]1C2)Nc1cccc(Oc2ccc3c(/C=C/c4ccccc4)n[nH]c3c2)c1` (stereo partly drawn), `O=C(/C=C/C1C[C@H]2C=C[C@H]1C2)Nc1cccc(C(=O)c2ccc3c(/C=C/c4ccccc4)n[nH]c3c2)c1` (stereo partly drawn) is lower in inhibition at 0.01 µM: 48% for the first, 37% for the second.

Compared with `O=C(Cc1ccccc1)C(=O)Nc1cccc(Nc2ccc3c(/C=C/c4ccccc4)n[nH]c3c2)c1`, `C[C@@H](CC(=O)Nc1cccc(Nc2ccc3c(/C=C/c4ccccc4)n[nH]c3c2)c1)c1ccccc1` is higher in inhibition at 0.01 µM: 11% for the first, 27% for the second.

First: O=C(Nc1cccc(C(=O)c2ccc3c(/C=C/c4ccccc4)n[nH]c3c2)c1)C(=O)C1=CCCCC1
Second: O=C(Nc1cccc(Oc2ccc3c(/C=C/c4ccccc4)n[nH]c3c2)c1)c1cc(=O)cco1
The inhibition at 0.01 µM of the first is higher: 45% for the first, 18% for the second.

Compared with `CCO/C(C)=C/C(=O)Nc1cccc(Oc2ccc3c(/C=C/c4ccccc4)n[nH]c3c2)c1`, `CN(C)C(=S)SCC(=O)Nc1cccc(Oc2ccc3c(/C=C/c4ccccc4)n[nH]c3c2)c1` is lower in inhibition at 0.01 µM: 87% for the first, 70% for the second.
